In patent publication EP4603105A1, “PHARMACEUTICAL COMPOSITION CONTAINING CYCLIC COMPOUND HAVING SELECTIVE KRAS INHIBITORY EFFECT AGAINST HRAS AND NRAS” (CHUGAI SEIYAKU KABUSHIKI KAISHA, priority 2022, dated 2024):
pIC50, pKd: −log10 of the molar value. Where two headings read alike, the source gives them in different places.

How the values were obtained:
[1] = biological target: GDP-bound KRAS wild-type protein (Homo sapiens, UniProt P01116); assay: Binding to KRAS by surface plasmon resonance (SPR), dissociation constant KD
Outline: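 GDP-loaded biotinylated Avi-tag RAS proteins (E. coli-expressed) captured on a Biotin CAPture chip at ~100–300 RU; single-cycle kinetics at 30°C, 100 µL/min, 75 s injections of rising compound concentrations. HBS pH 7.4 running buffer with 1 mM DTT, 10 mM MgCl2, 10 µM GDP, 4% DMSO. KD from 1:1 binding fit.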

[2] = biological target: GDP-bound NRAS wild-type protein (Homo sapiens, UniProt P01111); assay: Binding to NRAS by surface plasmon resonance (SPR), KD and KD ratio to KRAS
Outline: (§1)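 Biotinylated GDP-bound RAS was captured at about 100–300 RU. Running buffer: HBS pH 7.4, 10 mM MgCl2, 10 µM GDP, 1 mM DTT, 0.01% Tween 20, 4% DMSO.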

HRAS wild-type protein = HRAS wild-type protein (Homo sapiens, UniProt P01112); assay: Binding to HRAS by surface plasmon resonance (SPR), KD and KD ratio to KRAS
Outline: as §1

[3] = test system: human lung cancer strain NCI-H441; assay: NCI-H441 cell proliferation inhibitory activity (CellTiter-Glo, 4 days); assay type: cell-based; conditions: read-out: NCl-H441 IC50
Outline: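 Step one: dispense the test compound in serial DMSO dilutions. Step three: add the reagent and measure […].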

[4] = ratio of KD for GDP-bound NRAS wild-type protein to KD for KRAS
[5] = ratio of KD for HRAS wild-type protein to KD for KRAS
[6] = Single Cycle Kinetics, 1:1 binding model
[7] = ratio of KD with respect to GDP-bound NRAS wild-type protein to KD with respect to KRAS
[8] = ratio of KD with respect to HRAS wild-type protein to KD with respect to KRAS
[9] = 50% proliferation inhibitory concentration, four days

Chain of GDP-bound NRAS wild-type protein (P01111 whole entry): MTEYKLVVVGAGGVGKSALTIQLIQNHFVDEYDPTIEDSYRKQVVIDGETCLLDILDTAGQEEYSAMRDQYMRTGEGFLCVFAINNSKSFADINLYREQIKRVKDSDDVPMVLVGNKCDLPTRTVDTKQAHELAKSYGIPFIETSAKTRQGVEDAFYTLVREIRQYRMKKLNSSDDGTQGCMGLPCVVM
Chain of HRAS wild-type protein (P01112 whole entry): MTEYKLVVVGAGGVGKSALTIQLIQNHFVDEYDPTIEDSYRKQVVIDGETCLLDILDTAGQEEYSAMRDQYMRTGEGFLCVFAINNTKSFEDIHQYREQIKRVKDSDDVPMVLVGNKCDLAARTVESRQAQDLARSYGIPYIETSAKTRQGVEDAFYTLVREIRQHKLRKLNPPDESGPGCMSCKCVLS
Chain of GDP-bound KRAS wild-type protein (P01116 1-188 isoform P01116-2): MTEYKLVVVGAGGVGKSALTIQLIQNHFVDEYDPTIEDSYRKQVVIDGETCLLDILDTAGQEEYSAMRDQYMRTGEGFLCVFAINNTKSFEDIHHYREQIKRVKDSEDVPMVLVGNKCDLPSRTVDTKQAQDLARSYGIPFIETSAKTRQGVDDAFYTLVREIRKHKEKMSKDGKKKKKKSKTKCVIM

SMILES | pKd ([1]; Single Cycle Kinetics) | pIC50 ([3]; NCI-H441 cells, 4 days) | pKd [1, 6] | pIC50 [3, 9] | pKd ([1]; 1:1 binding model) | NRAS /KRAS [2, 4] | HRAS /KRAS (HRAS wild-type protein; [5]) | NRAS /KRAS [2, 7] | HRAS /KRAS (HRAS wild-type protein; [8])
C#CCN1CC(=O)N(C)[C@H]2C/C=C\CCN(C2=O)[C@@H](Cc2ccc(C(F)F)cc2)C(=O)N(C)CC(=O)N[C@@H](CCc2ccc(C(F)(F)F)cc2Cl)C(=O)N2C[C@H](OC(C)C)C[C@H]2C(=O)N(C)C2(CCC2)C(=O)N(C)[C@@H](C(CC)CC)C(=O)N(C)[C@H](C(=O)N(C)C)CC(=O)N(C)[C@@H](CC(C)C)C(=O)N[C@@H]([C@@H](C)CC)C1=O [PP3495] | 9.14 | 7.42 |  |  |  | AA (a compound having 20 or more is denoted as AA) | A (a compound having 10 or more and less than 20 is denoted as A) |  | 
C#CC[C@H]1C(=O)N[C@@H]([C@@H](C)CC)C(=O)N2CCC[C@H]2C(=O)N(C)[C@H]2C/C=C\CCN(C2=O)[C@@H](Cc2ccc(C(F)(F)F)cc2)C(=O)N(C)CC(=O)N[C@@H](CCc2ccc(C(F)(F)F)c(OC)c2)C(=O)N2C[C@H](OCC)C[C@H]2C(=O)OC2(CCC2)C(=O)N(C)[C@@H](C2CCCC2)C(=O)N(C)[C@H](C(=O)N(C)C)CC(=O)N1C [PP3371] | 9.48 | 8.27 |  |  |  | A (a compound having 10 or more and less than 20 is denoted as A) | A (a compound having 10 or more and less than 20 is denoted as A) |  | 
C=C(C)C[C@H]1C(=O)N(C)[C@H](C(=O)N(C)C)CC(=O)N(C)[C@@H](CC(C)C)C(=O)N[C@@H]([C@@H](C)CC)C(=O)N(C)CC(=O)N(C)[C@H]2C/C=C\CCN(C2=O)[C@@H](Cc2ccc(C)cc2)C(=O)N(C)CC(=O)N[C@@H](CCc2cc(F)c(C(F)(F)F)c(F)c2)C(=O)N2C[C@H](OCC)C[C@H]2C(=O)N(C)C2(CCC2)C(=O)N1C [PP3349] | 8.77 | 7.80 |  |  |  | A (a compound having 10 or more and less than 20 is denoted as A) | A (a compound having 10 or more and less than 20 is denoted as A) |  | 
CCO[C@@H]1C[C@H]2C(=O)NC3(CCC3)C(=O)N(C)[C@@H](C(CC)CC)C(=O)N(C)[C@H](C(=O)N(C)C)CC(=O)N(C)[C@@H](CC)C(=O)N[C@@H]([C@@H](C)CC)C(=O)N(C)CC(=O)N(C)[C@H]3C/C=C\CCN(C3=O)[C@@H](Cc3ccc(C(F)(F)F)cc3)C(=O)N(C)CC(=O)N[C@@H](CCc3cc(F)c(C(F)(F)F)c(F)c3)C(=O)N2C1 [PP1200] |  |  | 9.70 | 7.72 |  |  |  | AA (a compound having 20 or more is denoted as AA) | A (a compound having 10 or more and less than 20 is denoted as A)
CCCO[C@@H]1C[C@H]2C(=O)NC3(CC(C)(C)C3)C(=O)N(C)[C@@H](C3CCCC3)C(=O)N(C)[C@H](C(=O)N(C)CC)CC(=O)N(C)[C@@H](COCC)C(=O)N[C@@H]([C@@H](C)CC)C(=O)N3C[C@@H](C)C[C@H]3C(=O)N(C)[C@H]3C/C=C\CCN(C3=O)[C@@H](Cc3ccc(C(F)(F)F)cc3)C(=O)N(C)CC(=O)N[C@@H](CCc3ccc(C(F)(F)F)c(OC)c3)C(=O)N2C1 [PP3415] | 8.60 | 7.32 |  |  |  | A (a compound having 10 or more and less than 20 is denoted as A) | A (a compound having 10 or more and less than 20 is denoted as A) |  | 
CCO[C@@H]1C[C@H]2C(=O)NC3(CCC3)C(=O)N(C)[C@@H](C(CC)CC)C(=O)N(C)[C@H](C(=O)N(C)C)CC(=O)N(C)[C@@H](CC3CCCC3)C(=O)N[C@@H]([C@@H](C)CC)C(=O)N(C)CC(=O)N(C)[C@H]3C/C=C\CCN(C3=O)[C@@H](CC3CCC(F)(F)CC3)C(=O)N(C)CC(=O)N[C@@H](CCc3cc(F)c(C(F)(F)F)c(F)c3)C(=O)N2C1 [PP1431] |  |  | 9.24 | 7.39 |  |  |  | AA (a compound having 20 or more is denoted as AA) | A (a compound having 10 or more and less than 20 is denoted as A)
CCC(CC)[C@H]1C(=O)N(C)[C@H](C(=O)N(C)C)CC(=O)N(C)[C@@H](COC)C(=O)N[C@@H]([C@@H](C)CC)C(=O)N2CCC[C@H]2C(=O)N(C)[C@H]2C/C=C\CCN(C2=O)[C@@H](Cc2ccc(C(F)(F)F)cc2)C(=O)N(C)CC(=O)N[C@@H](CCc2ccc(Cl)c(Cl)c2)C(=O)N2C[C@H](OC(C)C)C[C@H]2C(=O)NC2(CC(C)(C)C2)C(=O)N1C [PP2639] |  | 7.09 |  |  | 8.96 | AA (a compound having 20 or more is denoted as AA) | A (a compound having 10 or more and less than 20 is denoted as A) |  | 

Further lines, with some results ahead:

pKd ([1]; Single Cycle Kinetics) | pIC50 ([3]; NCI-H441 cells, 4 days) | pKd [1, 6] | pIC50 [3, 9] | pKd ([1]; 1:1 binding model) | SMILES | NRAS /KRAS [2, 4] | HRAS /KRAS (HRAS wild-type protein; [5]) | NRAS /KRAS [2, 7] | HRAS /KRAS (HRAS wild-type protein; [8])
10.08 | 8.11 |  |  |  | CCC[C@H]1C(=O)N[C@@H]([C@@H](C)CC)C(=O)N(C)CC(=O)N(C)[C@H]2C/C=C\CCN(C2=O)[C@@H](Cc2ccc(C)cc2)C(=O)N(C)CC(=O)N[C@@H](CCc2ccc(C(F)(F)F)c(Cl)c2)C(=O)N2CC3(CC3)C[C@H]2C(=O)NC2(CCC2)C(=O)N(C)[C@@H](C2CCCC2)C(=O)N(C)[C@H](C(=O)N(C)C)CC(=O)N1C [PP3442] | A (a compound having 10 or more and less than 20 is denoted as A) | B (a compound having 3 or more and less than 10 is denoted as B) |  | 
 |  | 9.31 | 7.21 |  | CCCCCC[C@H]1C(=O)N[C@@H]([C@@H](C)CC)C(=O)N(C)CC(=O)N(C)[C@H]2C/C=C\CCN(C2=O)[C@@H](Cc2ccc(C(F)(F)F)cc2)C(=O)N(C)CC(=O)N[C@@H](CCc2ccc3sccc3c2)C(=O)N2C[C@H](OCC)C[C@H]2C(=O)NC2(CCC2)C(=O)N(C)[C@@H](C2CCCC2)C(=O)N(C)[C@H](C(=O)N(C)C)CC(=O)N1C [PP1259] |  |  | A (a compound having 10 or more and less than 20 is denoted as A) | A (a compound having 10 or more and less than 20 is denoted as A)
8.89 | 7.54 |  |  |  | CCO[C@@H]1C[C@H]2C(=O)OC3(CCC3)C(=O)N(C)[C@@H](C3CCCC3)C(=O)N(C)[C@H](C(=O)N(C)C)CC(=O)N(C)[C@@H](CC(C)C)C(=O)N[C@@H]([C@@H](C)CC)C(=O)N3CCC[C@H]3C(=O)N(C)[C@H]3C/C=C\CCN(C3=O)[C@@H](Cc3ccc(C)cc3)C(=O)N(C)CC(=O)N[C@@H](CCc3ccc(C(F)(F)F)c(OC)c3)C(=O)N2C1 [PP3380] | A (a compound having 10 or more and less than 20 is denoted as A) | B (a compound having 3 or more and less than 10 is denoted as B) |  | 
 | 6.55 |  |  | 8.37 | CCC[C@H]1C(=O)N[C@@H](CC(C)C)C(=O)N(CC)CC(=O)N(C)[C@H]2C/C=C\CCN(C2=O)[C@@H](Cc2ccc(C)cc2)C(=O)N(C)CC(=O)N[C@@H](CCc2ccc(C(F)(F)F)c(Cl)c2)C(=O)N2C[C@H](OCC)C[C@H]2C(=O)NC2(CCC2)C(=O)N(C)[C@@H](C2CCCC2)C(=O)N(C)[C@H](C(=O)N(C)C)CC(=O)N1C [PP2545] | A (a compound having 10 or more and less than 20 is denoted as A) | A (a compound having 10 or more and less than 20 is denoted as A) |  | 
9.66 | 8.28 |  |  |  | CCC[C@H]1C(=O)N[C@@H]([C@@H](C)CC)C(=O)N2CCC[C@H]2C(=O)N(C)[C@H]2C/C=C\CCN(C2=O)[C@@H](Cc2ccc(C)cc2)C(=O)N(C)CC(=O)N[C@@H](CCc2ccc(C(F)(F)F)c(OC)c2)C(=O)N2CC[C@H](OC)[C@H]2C(=O)N(C)C2(CCC2)C(=O)N(C)[C@@H](C2CCCC2)C(=O)N(C)[C@H](C(=O)N(C)C)CC(=O)N1C [PP3247] | A (a compound having 10 or more and less than 20 is denoted as A) | B (a compound having 3 or more and less than 10 is denoted as B) |  | 
 | 7.78 |  |  | 9.96 | CC[C@H](C)[C@@H]1NC(=O)[C@H](COC)N(C)C(=O)C[C@@H](C(=O)N(C)C)N(C)C(=O)[C@H](C2CCCC2)N(C)C(=O)C2(CC(C)(C)C2)NC(=O)[C@@H]2C[C@@H](C)CN2C(=O)[C@H](CCc2ccc(C(F)(F)F)c(OC)c2)NC(=O)CN(C)C(=O)[C@H](Cc2ccc(C)cc2)N2CC/C=C\C[C@@H](C2=O)N(C)C(=O)CN(C)C1=O [PP2387] | A (a compound having 10 or more and less than 20 is denoted as A) | A (a compound having 10 or more and less than 20 is denoted as A) |  | 
8.62 | 7.60 |  |  |  | CCC[C@H]1C(=O)N[C@@H](C2CCCC2)C(=O)N(C)CC(=O)N(C)[C@H]2C/C=C\CCN(C2=O)[C@@H](Cc2ccc(C(F)(F)F)cc2)C(=O)N(C)CC(=O)N[C@@H](CCc2cc(F)c(C(F)(F)F)c(F)c2)C(=O)N2CC3(CC3)C[C@H]2C(=O)N(C)C2(CCC2)C(=O)N(C)[C@@H]([C@@H](C)CC)C(=O)N(C)[C@H](C(=O)N(C)C)CC(=O)N1C [PP3307] | AA (a compound having 20 or more is denoted as AA) | A (a compound having 10 or more and less than 20 is denoted as A) |  | 
 |  | 10.13 | 8.36 |  | CCO[C@@H]1C[C@H]2C(=O)NC3(CCC3)C(=O)N(C)[C@@H](C3CCCC3)C(=O)N(C)[C@H](C(=O)N(C)C)CC(=O)N(C)[C@@H](CC(C)C)C(=O)N[C@@H]([C@@H](C)CC)C(=O)N(C)CC(=O)N(C)[C@H]3C/C=C\CCN(C3=O)[C@@H](Cc3ccc(C)cc3)C(=O)N(C)CC(=O)N[C@@H](CCc3cc(F)c(C(F)(F)F)c(F)c3)C(=O)N2C1 [PP1414] |  |  | A (a compound having 10 or more and less than 20 is denoted as A) | B (a compound having 3 or more and less than 10 is denoted as B)
